# Laboratory results: ChEMBL document CHEMBL1201862, “PubChem BioAssay data set” (2004)
# Active and inactive are the calls of the source.
# Assays:
# Cytochrome P450 1A2 = molecular target: T1, Cytochrome P450 1A2 (Homo sapiens, UniProt P05177);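 note: PubChem cytochrome P450 panel assay, CYP1A2 panel member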
# T1 sequence (P05177 whole entry): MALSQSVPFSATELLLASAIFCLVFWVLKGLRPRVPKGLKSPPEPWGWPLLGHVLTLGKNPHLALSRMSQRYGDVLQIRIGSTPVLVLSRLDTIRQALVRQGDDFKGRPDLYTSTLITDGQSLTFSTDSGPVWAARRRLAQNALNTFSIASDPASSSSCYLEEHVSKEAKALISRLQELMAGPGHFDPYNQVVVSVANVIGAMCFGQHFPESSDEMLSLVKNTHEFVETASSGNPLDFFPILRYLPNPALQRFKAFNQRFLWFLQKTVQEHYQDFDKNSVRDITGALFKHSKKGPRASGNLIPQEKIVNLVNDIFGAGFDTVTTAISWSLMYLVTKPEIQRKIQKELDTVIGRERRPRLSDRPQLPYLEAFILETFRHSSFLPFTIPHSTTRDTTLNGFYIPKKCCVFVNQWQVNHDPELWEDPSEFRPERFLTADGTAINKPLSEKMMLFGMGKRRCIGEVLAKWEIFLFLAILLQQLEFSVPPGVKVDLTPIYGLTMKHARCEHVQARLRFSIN
# Cytochrome P450 3A4 = Cytochrome P450 3A4 (Homo sapiens, UniProt P08684);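 note: CYP3A4 tested as one member of a cytochrome P450 panel screen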
# Sequence of Cytochrome P450 3A4 (P08684 whole entry): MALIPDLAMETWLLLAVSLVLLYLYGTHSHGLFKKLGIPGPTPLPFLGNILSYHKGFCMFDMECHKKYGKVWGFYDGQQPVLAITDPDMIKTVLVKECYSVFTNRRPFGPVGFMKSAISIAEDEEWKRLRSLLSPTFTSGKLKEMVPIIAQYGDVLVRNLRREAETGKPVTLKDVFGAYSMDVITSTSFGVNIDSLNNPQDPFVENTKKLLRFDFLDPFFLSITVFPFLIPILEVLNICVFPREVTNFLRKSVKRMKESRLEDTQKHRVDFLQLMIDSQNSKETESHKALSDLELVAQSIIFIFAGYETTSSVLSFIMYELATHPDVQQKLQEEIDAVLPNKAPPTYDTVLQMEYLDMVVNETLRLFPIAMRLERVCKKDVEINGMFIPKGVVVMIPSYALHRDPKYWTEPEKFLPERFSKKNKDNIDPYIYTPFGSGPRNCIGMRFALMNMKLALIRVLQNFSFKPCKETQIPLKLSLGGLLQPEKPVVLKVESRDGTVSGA
# [1] = molecular target: Dual specificity tyrosine-phosphorylation-regulated kinase 1A (Rattus norvegicus, UniProt Q63470); type: biochemical, Homo sapiens; details: read-out: AC50
# Vero [2] = test: cells; type: functional, cell-based; details: Chlorocebus sabaeus
# Vero [3] = test: cells; type: functional; details: Chlorocebus sabaeus
# Cytochrome P450 2C9 = Cytochrome P450 2C9 (Homo sapiens, UniProt P11712)
# Sequence of Cytochrome P450 2C9 (P11712 whole entry): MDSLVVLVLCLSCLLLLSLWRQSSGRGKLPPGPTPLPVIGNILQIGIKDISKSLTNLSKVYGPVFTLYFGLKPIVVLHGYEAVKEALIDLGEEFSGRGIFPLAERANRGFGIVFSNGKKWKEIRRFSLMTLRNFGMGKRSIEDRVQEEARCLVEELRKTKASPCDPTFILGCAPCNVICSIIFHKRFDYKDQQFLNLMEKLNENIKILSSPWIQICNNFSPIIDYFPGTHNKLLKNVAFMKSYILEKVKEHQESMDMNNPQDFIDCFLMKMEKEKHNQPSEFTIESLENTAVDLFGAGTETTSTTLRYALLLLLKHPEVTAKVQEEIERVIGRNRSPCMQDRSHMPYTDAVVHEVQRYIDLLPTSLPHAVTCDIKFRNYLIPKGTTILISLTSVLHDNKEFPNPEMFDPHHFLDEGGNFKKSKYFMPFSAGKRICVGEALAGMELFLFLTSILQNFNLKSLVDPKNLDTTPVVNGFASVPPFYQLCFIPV
# [4] = molecular target: T2, Calpain-2 catalytic subunit (Sus scrofa, UniProt P43367); test: pig calpain II inhibitor potency, dose response, biochemical, fluorogenic peptide substrate (AID 1420); type: functional
# T2 sequence (P43367 whole entry): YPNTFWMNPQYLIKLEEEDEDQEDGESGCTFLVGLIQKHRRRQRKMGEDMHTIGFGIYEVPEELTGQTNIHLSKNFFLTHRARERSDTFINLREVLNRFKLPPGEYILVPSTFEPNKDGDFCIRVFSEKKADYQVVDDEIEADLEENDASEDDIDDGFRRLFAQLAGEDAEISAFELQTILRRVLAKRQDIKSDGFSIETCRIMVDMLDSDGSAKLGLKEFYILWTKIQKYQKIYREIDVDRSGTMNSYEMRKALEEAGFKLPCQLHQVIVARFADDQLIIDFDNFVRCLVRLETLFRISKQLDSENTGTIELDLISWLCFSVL
# HEK293 [5] = test: cells; details: Homo sapiens
# HEK293 [6] = test: cells; details: Homo sapiens; remark: listed apart in the source
# HEK293 [7] = test: NOD1 signaling inhibitors, primary screen, cell-based, luminescence, uHTS (AID 1578); type: functional; details: Homo sapiens
# HEK293 [8] = test: cells; type: functional, cell-based; details: Homo sapiens
# HEK293 [9] = test: cells; type: functional, cell-based; details: Homo sapiens; remark: listed apart in the source
# HEK293 [10] = test: NOD2 signaling inhibitors in MDP-stimulated cells, cell-based, uHTS, luminescence (AID 2001); type: functional; details: Homo sapiens
# Tumor necrosis factor = Tumor necrosis factor (Homo sapiens, UniProt P01375); test: TNFa-triggered NF-kB activation inhibitors, SAR follow-up, cell-based, revised (AID 2337); type: functional
# Sequence of Tumor necrosis factor (P01375 whole entry, the tested form may be a part): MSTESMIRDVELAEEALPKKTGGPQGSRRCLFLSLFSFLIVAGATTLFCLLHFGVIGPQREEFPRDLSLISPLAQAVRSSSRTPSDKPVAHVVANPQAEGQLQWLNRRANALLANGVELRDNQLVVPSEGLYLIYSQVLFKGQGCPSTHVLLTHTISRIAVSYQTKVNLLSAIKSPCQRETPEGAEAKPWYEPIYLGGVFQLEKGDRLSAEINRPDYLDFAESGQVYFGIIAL
# [11] = molecular target: T3, Nucleotide-binding oligomerization domain-containing protein 1 (Homo sapiens, UniProt Q9Y239); test: NOD1 signaling inhibitors, SAR follow-up, revised (AID 2333); type: functional
# T3 sequence (Q9Y239 whole entry): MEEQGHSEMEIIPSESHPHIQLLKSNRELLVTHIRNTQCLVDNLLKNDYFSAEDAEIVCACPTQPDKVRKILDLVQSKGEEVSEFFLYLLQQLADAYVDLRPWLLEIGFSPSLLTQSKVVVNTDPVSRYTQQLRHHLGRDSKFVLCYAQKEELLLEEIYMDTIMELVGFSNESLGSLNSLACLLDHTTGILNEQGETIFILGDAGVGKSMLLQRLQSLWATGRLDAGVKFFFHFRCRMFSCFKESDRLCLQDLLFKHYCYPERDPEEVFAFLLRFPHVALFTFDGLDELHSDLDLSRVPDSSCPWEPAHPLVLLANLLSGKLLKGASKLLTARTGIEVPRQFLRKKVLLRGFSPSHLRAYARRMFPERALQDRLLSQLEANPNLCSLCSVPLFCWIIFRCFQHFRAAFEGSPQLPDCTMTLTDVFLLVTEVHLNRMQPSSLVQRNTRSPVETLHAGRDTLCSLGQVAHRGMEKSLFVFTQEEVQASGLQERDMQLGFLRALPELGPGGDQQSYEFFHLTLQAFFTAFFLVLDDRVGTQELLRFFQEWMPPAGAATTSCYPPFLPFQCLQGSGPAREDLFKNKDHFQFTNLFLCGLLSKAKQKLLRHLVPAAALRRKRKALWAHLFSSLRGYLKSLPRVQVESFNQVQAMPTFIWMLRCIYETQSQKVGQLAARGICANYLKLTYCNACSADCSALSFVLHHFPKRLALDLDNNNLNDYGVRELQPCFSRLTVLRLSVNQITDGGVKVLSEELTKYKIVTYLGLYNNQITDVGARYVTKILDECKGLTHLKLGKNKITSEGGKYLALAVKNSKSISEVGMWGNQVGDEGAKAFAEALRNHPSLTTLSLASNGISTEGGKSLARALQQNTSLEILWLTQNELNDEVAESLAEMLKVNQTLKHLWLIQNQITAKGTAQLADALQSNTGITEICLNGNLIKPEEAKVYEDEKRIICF
# HEK293 [12] = test: cells; details: Homo sapiens; remark: listed apart in the source
# [13] = molecular target: T4, Carboxy-terminal domain RNA polymerase II polypeptide A small phosphatase 1 (Homo sapiens, UniProt Q9GZU7); test: inhibitors of CTDSP1, concentration-response testing, biochemical assay, absorbance-based, actives from ultra-high-throughput screening (AID 540297); type: functional
# T4 sequence (Q9GZU7 whole entry): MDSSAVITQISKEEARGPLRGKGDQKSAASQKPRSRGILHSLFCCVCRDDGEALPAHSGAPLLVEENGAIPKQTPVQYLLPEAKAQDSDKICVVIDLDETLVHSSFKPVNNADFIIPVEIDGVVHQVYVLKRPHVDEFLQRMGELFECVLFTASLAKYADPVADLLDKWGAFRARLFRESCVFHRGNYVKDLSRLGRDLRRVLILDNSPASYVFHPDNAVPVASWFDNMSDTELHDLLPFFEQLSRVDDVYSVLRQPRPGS
# [14] = molecular target: T5, Rac GTPase-activating protein 1 (Homo sapiens, UniProt Q9H0H5); test: MgcRacGAP GTPase-activating activity inhibitors, confirmation, biochemical, ADP Hunter fluorescence, primary and confirmatory (AID 624330); type: functional
# T5 sequence (Q9H0H5 whole entry): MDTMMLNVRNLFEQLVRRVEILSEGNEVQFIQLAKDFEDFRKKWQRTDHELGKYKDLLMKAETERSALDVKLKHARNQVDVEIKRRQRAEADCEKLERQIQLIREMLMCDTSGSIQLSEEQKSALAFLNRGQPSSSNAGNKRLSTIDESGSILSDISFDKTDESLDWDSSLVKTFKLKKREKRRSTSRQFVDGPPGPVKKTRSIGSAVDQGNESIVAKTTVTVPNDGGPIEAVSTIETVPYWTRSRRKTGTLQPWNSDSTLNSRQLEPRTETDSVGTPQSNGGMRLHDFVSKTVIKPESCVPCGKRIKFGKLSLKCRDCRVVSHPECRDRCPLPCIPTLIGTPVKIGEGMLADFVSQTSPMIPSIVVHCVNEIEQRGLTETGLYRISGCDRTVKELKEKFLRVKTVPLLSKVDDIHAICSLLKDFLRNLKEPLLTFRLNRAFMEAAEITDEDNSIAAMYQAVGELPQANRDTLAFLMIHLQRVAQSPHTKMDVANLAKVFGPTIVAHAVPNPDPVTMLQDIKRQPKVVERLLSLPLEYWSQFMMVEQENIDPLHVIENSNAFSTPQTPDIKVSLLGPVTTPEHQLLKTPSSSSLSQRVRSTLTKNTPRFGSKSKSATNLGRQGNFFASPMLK
compound,measurement,setting,value
Cc1c(-c2ccc(F)cc2)nc(N)c(C#N)c1-c1cccs1,AC50,Cytochrome P450 1A2,1.78 µM (inconclusive)
same,AC50,Cytochrome P450 3A4,inconclusive
O=C(Nc1cccc(-c2nc3ncccc3o2)c1)c1cc2ccccc2o1,AC50,[1],0.942 µM (active)
Cc1cccnc1NC(=O)NC(=O)c1ccc(C(C)(C)C)s1,IC50,Vero [2],22.4 µM (active)
same,CC50,Vero [3],> 25 µM (active)
O=C(c1cccc(F)c1)N1CCC2(CC1)CCN(c1ccncc1)CC2,AC50,Cytochrome P450 2C9,25.1 µM (inconclusive)
same,AC50,Cytochrome P450 3A4,inconclusive
O=C(NC1CCCC1)C(c1ccsc1)N(Cc1ccccc1)C(=O)Cc1cccs1 (centres undefined),IC50,[4],> 50 µM (not active)
same,EC50,HEK293 [5],> 59.7 µM (inactive)
same,EC50,HEK293 [6],> 59.7 µM (inactive)
COc1ccc(C(O)P(=O)(OC(C)C)OC(C)C)cc1OC (centres undefined),AC50,Cytochrome P450 1A2,11.2 µM (inconclusive)
same,AC50,Cytochrome P450 3A4,inconclusive
COc1ccc(N2CCN(S(=O)(=O)c3ccc4c(c3)NC(=O)C(C)S4)CC2)cc1 (centres undefined),EC50,HEK293 [7],4.87 µM (active)
same,IC50,HEK293 [8],4.28 µM (active)
same,IC50,HEK293 [9],12.6 µM (active)
same,IC50,HEK293 [10],7.5 µM (active)
same,IC50,Tumor necrosis factor,10.2 µM (active)
same,IC50,[11],4.54 µM (active)
same,IC50,HEK293 [12],> 20 µM (inactive)
Cn1c2ccccc2c(=O)c2ccc(C#CC3(N)CCCCC3)cc21,AC50,[1],23.7 µM (active)
N#CCC(=O)Nc1ccc(C(=O)OCC(=O)Nc2ccc3ccccc3c2)cc1,IC50,[13],68.5 µM (active)
O=C1OC(c2ccc3c(c2)OCO3)=N/C1=C\c1ccc(C(=O)O)cc1,IC50,[13],1.38 µM (active)
CC(C)OP(=O)(c1ccc(N(C)C)cc1)C(Nc1ccccc1)c1ccccc1 (centres undefined),EC50,HEK293 [5],> 59.6 µM (inactive)
same,EC50,HEK293 [6],> 59.6 µM (inactive)
COc1nc(N)nc(NC(=O)c2cccs2)c1N=O,IC50,[14],116 µM (active)
same,EC50,HEK293 [5],> 59.6 µM (inactive)
same,EC50,HEK293 [6],> 59.6 µM (inactive)
CN(C)N=Nc1nc2c(c(=O)n(C)c(=O)n2C)n1CC1CO1 (centres undefined),IC50,Vero [2],21.9 µM (active)
same,CC50,Vero [3],> 25 µM (active)
COc1ccc(OC(F)(F)F)cc1CC1(C)C(=O)Nc2ccc(S(=O)(=O)NC3CCCCC3)cc21 (centres undefined),EC50,HEK293 [5],> 59.6 µM (inactive)
same,EC50,HEK293 [6],> 59.6 µM (inactive)
O=C(/C=C/c1ccccc1O)c1ccc(Cl)cc1,CC50,Vero [3],19.6 µM (active)
COc1ccc(/C=N/Nc2ncc(Br)cn2)c(OC)c1,IC50,[13],19.6 µM (active)
COc1ccc(-c2coc3cc(O)ccc3c2=O)cc1O [CALYCOSIN],AC50,[1],16.1 µM (active)
